Assay results published in patent publication US20240307434A1, “USE OF LUTETIUM SALT COMPOUNDS FOR ANTIVIRAL EFFECT” (priority 2022, published 2024).

Test system: Adenovirus, Poliovirus, Herpes Simplex Type 1 and Herpes Simplex Type 2, Coronavirus and Norovirus strains

With lutetium Borate [LuBO3] the antiviral efficacy was “exhibit antiviral efficacy”.
